From ChEMBL document CHEMBL5230126, “Cyclic tailor-made amino acids in the design of modern pharmaceuticals” (Eur J Med Chem, 2020)

Experiments:
[1] = Displacement of [125I]-Ang II from rabbit uterine membrane AT2R incubated for 3 hrs in presence of DuP 753; assay type: cell membranes, Oryctolagus cuniculus, Uterus
[2] = Displacement of [125I]-Ang II from rat liver membrane AT1R incubated for 3 hrs; assay type: cell membranes
[3] = biological target: T1, Orexin/Hypocretin receptor type 1 (Homo sapiens) (UniProt O43613); assay: Antagonist activity at human OX1 receptor; conditions: filed as antagonist
T1 sequence (whole entry): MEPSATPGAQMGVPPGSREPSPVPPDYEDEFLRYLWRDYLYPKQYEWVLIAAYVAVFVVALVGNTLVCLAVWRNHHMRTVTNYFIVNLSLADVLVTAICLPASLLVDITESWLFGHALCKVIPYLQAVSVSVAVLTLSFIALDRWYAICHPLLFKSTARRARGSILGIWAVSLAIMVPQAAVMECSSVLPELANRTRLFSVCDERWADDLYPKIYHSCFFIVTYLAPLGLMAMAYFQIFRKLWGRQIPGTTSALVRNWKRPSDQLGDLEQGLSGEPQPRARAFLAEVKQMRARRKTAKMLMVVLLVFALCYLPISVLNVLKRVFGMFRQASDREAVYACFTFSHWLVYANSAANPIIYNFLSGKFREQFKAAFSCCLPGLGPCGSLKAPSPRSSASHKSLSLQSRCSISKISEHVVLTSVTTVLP

[4] = biological target: T2, Orexin/Hypocretin receptor type 1 (Homo sapiens, UniProt O43613); assay: Inhibition of human orexin 1
T2 sequence (O43613 whole entry): T1 sequence (whole entry)

[5] = biological target: T3, Orexin receptor type 2 (Homo sapiens, UniProt O43614); assay: Inhibition of human orexin 2
T3 sequence (O43614 whole entry): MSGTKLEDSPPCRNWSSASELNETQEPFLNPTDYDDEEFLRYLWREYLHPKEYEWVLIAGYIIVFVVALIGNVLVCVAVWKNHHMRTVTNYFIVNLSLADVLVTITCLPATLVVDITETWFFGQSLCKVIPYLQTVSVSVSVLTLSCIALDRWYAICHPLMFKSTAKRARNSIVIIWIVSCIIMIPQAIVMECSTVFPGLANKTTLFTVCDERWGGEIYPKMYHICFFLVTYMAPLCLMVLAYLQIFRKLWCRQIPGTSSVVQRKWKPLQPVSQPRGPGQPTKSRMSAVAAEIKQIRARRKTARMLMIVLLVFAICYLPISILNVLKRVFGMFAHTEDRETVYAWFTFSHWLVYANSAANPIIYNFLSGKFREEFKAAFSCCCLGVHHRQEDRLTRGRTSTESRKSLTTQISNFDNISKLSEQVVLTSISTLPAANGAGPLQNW

| IC50 [1] [nM] | IC50 [2] [nM] | pKb [3] | Ki [4] [nM] | Ki [5] [nM] | Compound |
| --- | --- | --- | --- | --- | --- |
| 6.9 | > 10000 | – | – | – | Cc1cc(Cn2cnc3c2C[C@@H](C(=O)O)N(C(=O)C(c2ccccc2)c2ccccc2)C3)ccc1N(C)C |
| – | – | 8 | – | – | Cc1ccc(-c2cnccn2)c(C(=O)N2CCC3(CC3)C[C@H]2CNc2cccc(C(F)(F)F)n2)c1 |
| 0.58 | > 10000 | – | – | – | COc1ccc2c(c1OCc1ccccc1)C[C@@H](C(=O)O)N(C(=O)C(c1ccccc1)c1ccccc1)C2 [OLODANRIGAN] |
| – | – | – | 79.4 | 1580 | Cc1ccc(-c2ncccn2)c(C(=O)N2C[C@@H]3C[C@@H]3C[C@H]2CNc2nnc(C(F)(F)F)s2)n1 |
